Measurements taken from patent US20010049389A1, “Arthropod-controlling composition” (priority 2000, published 2001).

Experiments:
Type in all cases: in vivo
[1] = test system: adult smokybrown cockroaches (Periplaneta fuliginosa); test: Test Example 5: heating fumigant (ceramic plate) in 5.8 m^3 chamber, smokybrown cockroaches; conditions: heating fumigant (Preparation example 24, 500 mg) at about 200° C. in 5.8 m^3 chamber
Description: (§1) On the bottom of a cubic chamber having 1.8 m of side (5.8 m^3), the heating fumigant (ceramic plate) obtained in Preparation example 24 with an electric heater was set in the center. Two plastic cups were put at two corners in the chamber, wherein each cup has ten (5 males and 5 females) adult German cockroaches (Blattella germanica) therein. Two hours after turning on an electric current, the ceramic plate was heated to about 200° C. (200±5° C.) and the active ingredient was vaporized. The heating temperature was estimated by measuring a surface temperature of the ceramic plate with radiation pyrometer (TR-0506C produced by Minolta Company) in advance. Then, the knocked-down cockroaches were counted and the knock-down percentage was calculated. Further, the cockroaches were transferred to a clean plastic cup and given foods and water. The mortality was observed after 7 days.
(§2) Furthermore, the same tests were performed except that six (3 males and 3 females) adult smokybrown cockroaches (Periplaneta fuliginosa) and six (3 males and 3 females) adult American cockroaches (Periplaneta americana) were used in place of ten German cockroaches.

[2] = test system: adult American cockroaches (Periplaneta americana); test: Test Example 5: heating fumigant (ceramic plate) in 5.8 m^3 chamber, American cockroaches; conditions: heating fumigant (Preparation example 24, 500 mg) at about 200° C. in 5.8 m^3 chamber
Description: as §1, §2

adult Porcellio scaber = test: Test Example 13: oil-based aerosol spray, Porcellio scaber; conditions: about 450 mg of 1.0% oil-based aerosol sprayed, after 3 days
Description: According to Preparation examples 10-14, 1.0% oil-based aerosol of the Pyrone Compound was obtained. A container (8.75 cm in diameter, 7.5 cm in height, bottom covered 16-mesh iron net and inside wall painted butter for preventing tested pill bugs to escape) having 5 adult pill bugs (Armadillidium vulgare) therein was set on the bottom center of a glass cylinder having 20 cm in diameter and 60 cm in height. About 450 mg of the above oil-based aerosol were sprayed to the pill bugs from the upper part of the cylinder. After 30 seconds, the pill bugs were taken out and put into a clean plastic cup having soil and dead leaves therein. The pill bugs were given food and water and observed after 3 days. The tests were repeated twice. The mortality was 100%. Reference compound was also tested and the mortality was 40%.
The same procedure was performed as in Test example 12 except that 5 adult Porcellio scaber were used in place of Armadillidium vulgare. As a result, the mortality of the Pyrone Compound was 100%.

[3] = test system: 4-instar larvae of tobacco cutworm (Spodoptera litura); test: Test Example 17: treated cabbage leaf disc, feeding damage by tobacco cutworm; conditions: 50 μg on cabbage leaf disc of 1 cm diameter, after 24 hours, 5 repetitions
Description: A methanol solution (50 μg/20 μl) of the Pyrone Compound was prepared. The solution (20 μl) was painted on a cut leaf disc of cabbage (1 cm in diameter). After vaporizing methanol, the leaf disc was put on a filter paper, which was wet with 1 ml of water, in Petri dish making the painted surface upside. Two 4-instar larvae of tobacco cutworm (Spodoptera litura) were put in the Petri dish. After 24 hours, the damage of the leaf disc was observed and compared with the test result of the non-treated disc. The tests were repeated 5 times.

[4] = test system: first-instar larvae of summer fruit tortrix (Adoxophyes orana fasciata); test: Test Example 19: treated artificial food, summer fruit tortrix larvae; conditions: 1 ml of 500 ppm dilution (Preparation example 2) in 6 g artificial food, after 6 days
Description: The formulation obtained in Preparation example 2 was diluted with water to make the concentration of the Pyrone Compound to 500 ppm. One milliter (1 ml) of the dilution was added to 6 g of artificial food (Insecta LF produced by Nihon Nosankogyo Co.) in plastic cup having 5.5 cm in diameter. Thirty first-instar larvae of summer fruit tortrix (Adoxophyes orana fasciata) were put into the plastic cup. After 6 days, the mortality was 90% or more.

[5] = test system: adult German cockroaches (Blattella germanica); test: Test Example 21: total-release aerosol in 28 m^3 chamber, German cockroaches; conditions: total-release aerosol (Preparation example 16) in 28 m^3 chamber, after 2 hours
Description: In a test chamber of 3 m×4 m and 2.3 m in height (28 m^3), two plastic cups were put at two corners, wherein each cup has ten (5 males and 5 females) adult German cockroaches (Blattella germanica) therein. The formulation obtained in Preparation example 16 was set in the center of the bottom and the contents of the aerosol were totally released. After 2 hours, the knock-down percentage was 100%.

## Cc1cc(O)c(C(=O)CC(C)C)c(=O)o1 [The Pyrone Compound]
[1]; after 7 days
  Mortality (%): 83%
[1]; two hours
  Knock-down percentage (%): 100%
[2]; after 7 days
  Mortality (%): 67%
[2]; two hours
  Knock-down percentage (%): 100%
Adult Porcellio scaber
  mortality: 100%
[3]
  damage of the leaf disc compared with the non-treated disc: clearly smaller
[4]
  mortality: ≥ 90%
[5]
  knock-down percentage: 100%
